Source: patent US5254543A, “Sulphonylbenzyl-substituted pyridones which are angiotension II receptor antagonists” (Bayer Aktiengesellschaft, priority 1992, dated 1993)

System: angiotensin II-induced contraction of isolated rabbit aorta rings
Test: Inhibition of agonist-induced contraction, angiotensin II: inhibition of vascular contraction in isolated rabbit aorta rings in vitro
Conditions: based on the 3rd = submaximal agonist concentration, read-out: IC50 against contractions induced by AII
Experimental: Rabbits of both sexes are stunned by a blow to the neck and bled out, or in some cases anesthetised with Nembutal (about 60-80 mg/kg i.v.) and sacrificed by opening the thorax. The thorax aorta is taken out, freed from adhering connective tissue, divided into 1.5 mm wide ring segments and individually transferred under an initial loading of about 3.5 g to 10 ml organ baths containing 95% O2 /5% CO2 -aerated Krebs-Henseleit nutrient solution temperature-controlled at 37° C. of the following composition: 119 mmol/l of NaCl; 2.5 mmol/l of CaCl2 ×2 H2 O; 1.2 mmol/l of KH2 PO4; 10 mmol/l of glucose; 4.8 mmol/l of KCl; 1.4 mmol/l of MgSO4 ×7 H2 O and 25 mmol/l of NaHCO3.
The contractions are measured isometrically by Statham UC2 cells by means of bridge amplifiers (ifd Mulheim or DSM Aalen) and digitalised and analysed by means of A/D convertors (System 570, Keithley Munich). Agonist dose response curves (DRC) were plotted hourly. With each DRC, 3 or 4 individual concentrations are applied to the baths at an interval of 4 min. […]
The height of the 3rd DRC in the normal case is used as a reference quantity for the evaluation of the test substance to be investigated in further passages, which is applied to the baths in the following DRCs in increasing dosage in each case at the start of the incubation time. […]

IC50: 280 nM
Structure (SMILES): CCCCc1cc(C(=O)O)cc(=O)n1Cc1ccc(S(=O)(=O)N2CCCC2C(=O)O)cc1Cl (stereo not shown) [Example 6]
